# Results from patent publication US8193350B2, “Fluorescent compound and labeling agent comprising the same” (Keio University, priority 2006, dated 2012).
# Several values for one entry are separate records, joined by “and”; a condition that tells them apart may be missing. Identical values can stand only once. Like-named read-outs stand apart in the source and are kept apart here. Marks after values point to notes of the source that are not given here.
# Assays:
# [1] = Light fastness test: change of absorbance with time under the light of daily life; type: physicochemical; conditions: acetonitrile
# Description: An experiment testing the light fastness of fluorescent compound 8 and Cy7 (trade name, 1-[3-(4-monomethoxytrityloxy)propyl]-1′-[3-[(2-cyanoethyl)-(N,N-diisopropyl)phosphoramidityl]propyl]-3,3,3′,3′-tetramethylindotricarbocyanine chloride) was carried out.
# Fluorescent compound 8 and Cy7 (trade name) were respectively dissolved in acetonitrile to a concentration attaining an absorbance of 0.1. The solutions were left to stand under the same conditions (more specifically, under the light of daily life without light shading, and the absorbance was measured every day (or every other day). The change with time of the measured absorbance was graphed taking the relative absorbance (taking the absorbance before leaving to stand as 100%) along the ordinate and taking the days along the abscissa.
# [2] = Optical properties: absorption and fluorescence emission spectra; type: physicochemical
# [3] = cited from earlier work
# [4] = CHCl3, reference N,N′-bis(1-hexylheptyl)-perylene dye (Φ=1.00 in CH2Cl2)
# [5] = CHCl3, reference 3,3′-diethyl-dithiazylcarbocyanine, excitation 650 nm, containing error of 10%
# [6] = MeOH, reference 3,3′-diethyl-dithiazylcarbocyanine, excitation 650 nm, containing error of 10%
Compound,fwhm (full width at half maximum height) ([2]; MeOH),λabs (maximum absorption wavelength) ([2]; MeOH),λflu (maximum fluorescence wavelength) ([2]; MeOH),shift of maximum absorption wavelength to longer wavelength compared with boron dipyrromethene (R1=R3=R5=R7=Me) [2],shift of maximum absorption wavelength to longer wavelength compared with fluorescent compound 2 [2],fwhm (full width at half maximum height) ([2]; CHCl3),λabs (maximum absorption wavelength) ([2]; CHCl3),λflu (maximum fluorescence wavelength) ([2]; CHCl3),also measured
"COc1ccc(C(OCCC[N+]2=C(C=CC=CC=CC=C3N(CCCOP(OCCC#N)N(C(C)C)C(C)C)c4ccccc4C3(C)C)C(C)(C)c3ccccc32)(c2ccccc2)c2ccccc2)cc1.[Cl-] (centres unmarked) [Cy7, 1-[3-(4-monomethoxytrityloxy)propyl]-1′-[3-[(2-cyanoethyl)-(N,N-diisopropyl)phosphoramidityl]propyl]-3,3,3′,3′-tetramethylindotricarbocyanine chloride]",–,–,–,–,–,–,–,–,"light fastness (in words) ([1]; light of daily life, 1 week): very poor; relative absorbance retained (absorbance before leaving to stand as 100%) ([1]; under the light of daily life without light shading, after 1 week): ≤ 10%"
"1-[3-(4-monomethoxytrityloxy)propyl]-1′-[3-[(2-cyanoethyl)-(N,N-diisopropyl)phosphoramidityl]propyl]-3,3,3′,3′-tetramethylindodicarbocyanine chloride [Cy5, reference compound]",29 nm,648 nm,670 nm,–,–,–,–,–,"ε (molar extinction coefficient) ([2]; MeOH): 250,000 M^−1cm^−1; Φ (fluorescence quantum yield) ([3]; the value in PBS obtained from Amersham Biosciences): 0.27^a"
CCCCC(CCCC)Oc1cc(C)c(C2=C3C=c4oc(-c5ccc(OC)cc5)cc4=[N+]3[B-](F)(F)n3c2cc2oc(-c4ccc(OC)cc4)cc23)c(C)c1 [Fluorescent Compound 5],29 nm,664 nm,679 nm,about 170 nm,about 90 nm,28 nm,673 nm,685 nm,"ε (molar extinction coefficient) ([2]; CHCl3): 190,000 M^−1cm^−1; Φ (fluorescence quantum yield) [2, 4]: 0.68; ε (molar extinction coefficient) ([2]; MeOH): 200,000 M^−1cm^−1; Φ (fluorescence quantum yield) ([2]; MeOH, reference N,N′-bis(1-hexylheptyl)-perylene dye (Φ=1.00 in CH2Cl2)): 0.63; fwhm (full width at half maximum height) ([2]; THF): 27 nm; ε (molar extinction coefficient) ([2]; THF): 190,000 M^−1cm^−1; λabs (maximum absorption wavelength) ([2]; THF): 669 nm; λflu (maximum fluorescence wavelength) ([2]; THF): 680 nm; Φ (fluorescence quantum yield) ([2]; THF, reference N,N′-bis(1-hexylheptyl)-perylene dye (Φ=1.00 in CH2Cl2)): 0.67; fwhm, summary in text of the values in Table 1 ([2]; all solvents of Table 1): about 30 nm"
COc1ccc(OC)c(-c2cc3c(o2)=CC2=Cc4cc5oc(-c6cc(OC)ccc6OC)cc5n4[B-](F)(F)[N+]=32)c1 [Fluorescent Compound 7],28 nm,662 nm,674 nm,about 170 nm,about 90 nm,24 nm,688 nm and 678 nm,688 nm,"Φ (fluorescence quantum yield) [2, 5]: 0.51; Φ (fluorescence quantum yield) [2, 6]: 0.54"
"CCN1C(=CC=Cc2sc3ccccc3[n+]2CC)Sc2ccccc21 [3,3′-diethyl-dithiazylcarbocyanine]",–,–,–,–,–,–,–,–,Φ of reference dye ([3]; in MeOH): 0.33
COc1ccc(-c2cc3c(o2)=CC2=Cc4cc5oc(-c6ccc(OC)cc6)cc5n4[B-](F)(F)[N+]=32)cc1 [Fluorescent Compound 6],26 nm,659 nm,672 nm,about 170 nm,about 90 nm,24 nm,683 nm and 673 nm,683 nm,"ε (molar extinction coefficient) ([2]; CHCl3, containing error of 10% (Table 4)): 240,000 M^−1cm^−1; Φ (fluorescence quantum yield) [2, 5]: 0.69; Φ (fluorescence quantum yield) [2, 6]: 0.58; fwhm (full width at half maximum height) ([2]; THF): 24 nm; λabs (maximum absorption wavelength) ([2]; THF): 665 nm; λflu (maximum fluorescence wavelength) ([2]; THF): 674 nm; Φ (fluorescence quantum yield) ([2]; THF, reference 3,3′-diethyl-dithiazylcarbocyanine, excitation 650 nm, containing error of 10%): 0.63"
CCCCC(CCCC)Oc1cc(C)c(C2=C3C=c4sc(C)cc4=[N+]3[B-](F)(F)n3c2cc2sc(C)cc23)c(C)c1 [Fluorescent Compound 3],–,–,–,–,–,20 nm,586 nm,596 nm,"ε (molar extinction coefficient) ([2]; CHCl3): 170,000 M^−1cm^−1; Φ (fluorescence quantum yield) [2, 4]: 0.39"
